Structures can show the parent of a compound that is named as a salt. Where two headings read alike, the source gives them in different places.

Data on 14 compounds can be found in patent US4659730A, “Aromatase inhibiting imidazole derivatives” (Eli Lilly and Company, priority 1984, dated 1987).

The target of one test is T1, aromatase (Rattus norvegicus, UniProt P22443).
T1 sequence (P22443 1-508): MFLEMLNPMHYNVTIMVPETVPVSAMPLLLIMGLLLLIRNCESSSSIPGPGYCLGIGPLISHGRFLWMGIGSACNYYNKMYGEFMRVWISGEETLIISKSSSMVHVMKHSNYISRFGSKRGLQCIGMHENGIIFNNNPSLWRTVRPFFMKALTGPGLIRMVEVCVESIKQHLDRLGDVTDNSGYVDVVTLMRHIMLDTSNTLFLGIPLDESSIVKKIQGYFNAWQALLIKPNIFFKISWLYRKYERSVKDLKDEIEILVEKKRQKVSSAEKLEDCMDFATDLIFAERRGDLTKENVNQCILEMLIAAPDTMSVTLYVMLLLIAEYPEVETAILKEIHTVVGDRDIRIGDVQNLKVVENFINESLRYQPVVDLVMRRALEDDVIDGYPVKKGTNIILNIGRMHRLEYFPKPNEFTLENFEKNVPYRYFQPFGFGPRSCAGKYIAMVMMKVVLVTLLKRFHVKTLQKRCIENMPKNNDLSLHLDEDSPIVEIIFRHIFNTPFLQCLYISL
As to the kind of experiment: biochemical.

For another test, the system named is breast cancer. The conditions noted are these: known aromatase inhibitors; Cancer Research, Vol. 42, Suppl. 8:3261s (1982); cited from earlier work.
Test [1] concerns aromatization (estrogen synthesis). Nature of the test: Estrogen synthesis inhibition in rats (uterine weight and ovarian steroid levels). The format is in vivo, rat (immature female Wistar). The conditions noted are these: 7 days; for Mean Uterine Weight: testosterone propionate-treated rats; for Mean Steroid Concentration, estrone / Mean Steroid Concentration, estriol / Mean Steroid Concentration, estradiol: ovaries; for Mean Steroid Concentration, estrone: testosterone-treated control 0.19; for Mean Steroid Concentration, estriol: testosterone-treated control 0.53; for Mean Steroid Concentration, estradiol: testosterone-treated control 0.55.

The mark [2] stands for this setting: rat ovarian microsomes, substrate (androstenedione) concentration 0.1 μM.
Setting [3] is: 30 ppm in feed (approx. 3 mg/kg/day).
The mark [4] stands for this setting: 300 ppm in feed (approx. 30 mg/kg/day).

Protocol for aromatase: In this test system, ovarian microsomes are obtained from rats treated with pregnant mares serum gonadotropin. Test compounds are added to reaction vials containing 0.1 μM 4-androstene-3,17-dione, 100,000 dpm 1,2[^3 H]-androstenedione, the microsomes and a NADPH generating system. The concentrations of the inhibitors tested ranged between 0.005 and 10 μM.

Usually EC50 stands for the concentration needed to bring the measured effect to its halfway point. A high value points to a need for much substance. For `c1ccc2c(c1)OCCC2n1ccnc1` (stereo not drawn) [1-(3,4-dihydro-2H-1-benzopyran-4-yl)-1H-imidazole hydrochloride], it took 2800 nM to reach a half-maximal effect on aromatase (setting [2]) (EC50).

As to `Clc1cccc2c1CCC2n1ccnc1` (stereo not drawn) [1-(4-chloro-2,3-dihydro-1H--inden-1-yl)-1H--imidazole nitrate], the EC50 on aromatase (setting [2]) was determined as 680 nM.

As for `C[C@]12C=CC(=O)C=C1CC[C@@H]1[C@@H]2CC[C@]2(C)OC(=O)CC[C@@H]12` [testolactone], the “effect in treatment of breast cancer” value in the test on breast cancer is “beneficial effect in treatment of breast cancer”.

Take `c1ccc2c(c1)CCCC2n1ccnc1` (stereo not drawn) [nitrate]: on aromatase, the EC50 was determined as 520 nM. In other words, the sub-micromolar range.

On to `Clc1cc2c(cc1Cl)C(n1ccnc1)CC2.O=[N+]([O-])O` (stereo not drawn), for which, in test [1] (30 ppm in feed (approx. 3 mg/kg/day), 4 animals, testosterone-treated control 140.8), the “Mean Uterine Weight” value came to 152.5 mg. The “Mean Uterine Weight” value in test [1] (300 ppm in feed (approx. 30 mg/kg/day), 5 animals, significantly different from testosterone-treated control (140.8), p < 0.05) turned out to be 103.2 mg. In test [1] (setting [3]), the “Mean Steroid Concentration, estrone” value was 0.21 femtomoles per milligram of protein; the “Mean Steroid Concentration, estriol” value is 0.46 femtomoles per milligram of protein; the “Mean Steroid Concentration, estradiol” value is reported as 0.71 femtomoles per milligram of protein. For the same compound, in test [1] (setting [4]), the “Mean Steroid Concentration, estrone” value is 0.17 femtomoles per milligram of protein; the “Mean Steroid Concentration, estriol” value is 0.49 femtomoles per milligram of protein; the “Mean Steroid Concentration, estradiol” value was 0.35 femtomoles per milligram of protein.

Turning to `COc1cccc2c1CCCC2n1ccnc1` (stereo not drawn) [nitrate], the EC50 on aromatase came to 250 nM.

On to `COc1ccc(OC)c2c1CCC2n1ccnc1` (stereo not drawn) [nitrate], for which a half-maximal effect on aromatase (EC50) was put at 870 nM.

In turn, `COc1ccc2c(c1)C(n1ccnc1)CCC2` (stereo not drawn) [nitrate] gave a concentration for a half-maximal effect (EC50) on aromatase of 450 nM. This EC50 is about 1.9-fold lower than that of the compound before.

On to `Clc1cc2c(cc1Cl)C(n1ccnc1)CC2.O=[N+]([O-])O` (stereo not drawn) [nitrate], for which the EC50 at aromatase is 78 nM.

`Clc1ccc2c(c1)C(n1ccnc1)CCC2` (stereo not drawn) [1-(7-chloro-1,2,3,4-tetrahydro-1-naphthalenyl)-1H--imidazole nitrate] yielded an EC50 at aromatase (setting [2]) of 100 nM. This counts as sub-micromolar.

Regarding `Clc1cc(Cl)c2c(c1)C(n1ccnc1)CC2` (stereo not drawn) [nitrate], the concentration for a half-maximal effect (EC50) at aromatase stood at 115 nM.

On aromatase, `c1ccc2c(c1)SCCC2n1ccnc1` (stereo not drawn) [nitrate] gave a concentration giving a half-maximal response (EC50) of 1020 nM. This EC50 is about 8.9-fold higher than that of the compound before.

Consider `c1ccc2c(c1)CCC2n1ccnc1` (stereo not drawn) [nitrate], for which it took 810 nM to reach a half-maximal effect on aromatase (EC50).

Turning to `CCC1(c2ccc(N)cc2)CCC(=O)NC1=O` (stereo not drawn) [aminoglutethimide], the “effect in treatment of breast cancer” value in the test with breast cancer was “beneficial effect in treatment of breast cancer”.
